Measured values from patent US9540647B2, “Methods and compositions for the treatment of cancer” (University of South Alabama, priority 2010, dated 2017).
Entries after “also recorded” stand apart in the source; their conditions may differ.

How the values were obtained:
OPN mRNA = test: OPN transcript levels by real-time RT-PCR in metastatic melanoma cell lines; assay type: cell-based, human; conditions: for levels of OPN mRNA: cyclopamine 24 h, qRT-PCR
Experimental: This medium was replaced with fresh cyclopamine-containing medium after 12 h. […] RNA was assessed by real-time RT-PCR for OPN transcript levels.
(§1) Stable vector only and non-targeting (scrambled control) transfectants were also generated. Stable transfectants were selected on medium supplemented with 500 μg/ml Geneticin (Invitrogen). The four GLI1-knocked down clones chosen were based on the extent of GLI1 knockdown and were termed KO1, KO2, KO3, and KO4. The expression of OPN was restored in the KO1 cells by transfecting with pcDNA3.1-OPN. A corresponding vector-only transfectant was also generated. Transfectants were selected on medium containing Geneticin (500 μg/ml) and hygromycin (750 μg/ml). Serum-free conditioned medium harvested from approximately 3.0×10^6 cells after 24 hr was assayed for OPN by immunoblotting.
Quantitative RT-PCR (qRT-PCR)—cDNA was generated using High Capacity Reverse Transcriptase Kit (Applied Biosystems, Foster City, Calif.). Real time PCR was performed using a Bio-Rad iQ5 Real-Time Detection system (Bio-Rad). All reactions were done as three independent replicates. All assays were done using the TaqMan Gene Expression Assays from Applied Biosystems. OPN (SPP1: Hs 00959010_m1) transcript levels were normalized to glyceraldehyde-3-phosphate dehydrogenase (Hs 99999905_m1) levels (δCT), which was used to calculate changes in OPN expression (2^−δδCT). […] GLI1 and SHH (Hs 00179843_m1) expressions were also similarly assessed with glyceraldehyde-3-phosphate dehydrogenase as an endogenous control. To analyze the knockdown effectiveness, “scrambled transfectants” of MDA-MB-435 was set as calibrator.

OPN = test: Secreted OPN in conditioned media of MDA-MB-435 cells (Western blot); assay type: cell-based, human; conditions: 10 μM and 20 μM cyclopamine vs DMSO
Experimental: as §1
Western Blotting Analysis—Whole cell lysates were collected in Nonidet P-40 buffer (150 mM NaCl, 50 mM Tris, 1% Nonidet P-40). Isolation of cytosolic and nuclear fractions was done as previously reported (15). Total protein (30 μg) was resolved by SDS-PAGE gel and transferred to polyvinylidene difluoride membranes. […] Secreted OPN was assessed by loading an equal quantity of protein from the serum-free conditioned medium. […]

RAW264.7 cells [1] = test: Osteoclast differentiation (TRAP assay); assay type: cell-based, murine
Experimental: Cell lines—Human metastatic breast cancer cells, MDA-MB-231, were cultured in Dulbecco's Modified Eagle's Medium (DMEM/F12; Invitrogen, Carlsbad, Calif.), supplemented with 2 mM L-glutamine, 1 mM sodium pyruvate, 0.02 mM non-essential amino acids, 5% fetal bovine serum, FBS (Atlanta Biologicals, Norcross, Ga.), without antibiotics or antimycotics (cDME/F12). SUM1315 and SUM159 cells (DiMeo, T. A., et al. (2009) Cancer Res 69, 5364-5373) (Asterand, Detroit, Mich.) were cultured in DMEM/F12 supplemented with […], 5% FBS (Atlanta Biologicals) and either 10 ng/ml EGF or 1 ng/ml hydrocortisone, without antibiotics or antimycotics. The SUM1315 cells are derived from a metastasis in a patient with infiltrating ductal carcinoma; SUM159 cells were derived from a primary breast tumor with metaplastic carcinoma. RAW264.7 (ATCC, TIB 71) cells, a murine pre-osteoclastic line capable of differentiation and […] in culture (in presence of RANKL and MCSF), were grown in DMEM with L-glutamine (ATCC, 30-2002) supplemented with 10% FBS. A 2× differentiation medium (DM) was formulated for the RAW 264.7 cells comprising RAW264.7 growth medium supplemented with 20% FBS, RANKL (100 ng/ml) and M-CSF (40 ng/ml) (Matsubara, T., et al. J Bone Miner Res 25, 1068-1076). Conditioned media was harvested from breast cancer cells and mixed in a 1:1 ratio with double strength differentiation medium to assess the effect on osteoclast differentiation. 1×DM was used as control or wherever SHH (R & D Systems, Minneapolis, Minn.) or OPN (R & D Systems) was used alone. The medium on the RAW264.7 cells was replenished every 48 hours. In order to assess the effect of secreted Hh ligands, the neutralizing 5E1 antibody was used (Developmental Studies Hybridoma Bank, at the University of Iowa, Iowa). […] Medium was supplemented with 5E1 (2.5 μg/ml) and was changed on alternate days until the end of the experiment. The effect of OPN on osteoclast activity was assessed by transfecting an OPN shRNA-expressing construct on day 6 post-induction of differentiation. Fresh DM was added the following day and cells were allowed to grow for another 12 hours before termination of experiment. GLI1 expression was silenced in the SUM1315 cells using shRNA targeting GLI1 into pSuperior. gfp+neo (Oligoengine, WA, USA). Silencing of OPN expression was done using OPN-targeting shRNA cloned into pSuper (Oligoengine)
Osteoclast differentiation and activity assays—Tartarate-resistant acid phosphatase (TRAP) assay was conducted for RAW 264.7 following the manufacturer's protocol (Sigma, St. Louis, Mo.). This assay was indicative of the extent of differentiation. […] The percentage of area resorbed was calculated using the NIS-Elements BR. […]

RAW264.7 cells [2] = test: Osteoclast resorption activity (OAAS plates); assay type: cell-based, murine
Experimental: Osteoclast differentiation and activity assays—Tartarate-resistant acid phosphatase (TRAP) assay was conducted for RAW 264.7 following the manufacturer's protocol (Sigma, St. Louis, Mo.). This assay was indicative of the extent of differentiation. OAAS plates (Osteogenic Core Technologies, Choongnam, Republic of Korea) were utilized to measure osteoclastic activity. RAW 264.7 cells (25×103) were inoculated in 48-well plates. Cells were treated with serum-free conditioned media from breast cancer cells or 100 nM SHH or 100 ng/ml OPN on the following day. Media was changed every two days and the experiments were terminated either on day 6 (day 7 for knockdown experiments, with transfections being done on the sixth day). At the completion, cells were detached with 5% sodium hypochlorite and the wells were observed under a Nikon Eclipse TS 100 microscope at 10× magnification. […] The percentage of area resorbed was calculated using the NIS-Elements BR. 3.1 software.

Compound	levels of OPN mRNA (OPN mRNA; MCC012A cells)	levels of OPN mRNA (OPN mRNA; MCC012F cells)	levels of OPN mRNA (OPN mRNA; MDA-MB-435 cells)	OPN in the secretome (OPN)	ability of tumor cells to induce osteoclast differentiation (RAW264.7 cells [1]; conditioned medium from MDA-MB-435 cells treated with cyclopamine)	ability of osteoclasts to differentiate (RAW264.7 cells [1]; cyclopamine (20 μM), DM and breast cancer cell-conditioned medium)	ability of osteoclasts to resorb matrix (RAW264.7 cells [2]; cyclopamine (20 μM), stimulated with breast cancer conditioned medium)	OPN transcript levels, rescue of cyclopamine inhibition (OPN mRNA; MDA-MB-435 cells, cyclopamine 20 μM, after 12 hr medium with recombinant SHH (100 nM))	numbers of multinucleate TRAP-positive cells (RAW264.7 cells [1]; DM supplemented with OPN (100 ng/ml) or SHH (100 nM) vs DM)	resorption activity of differentiated osteoclasts (RAW264.7 cells [2]; DM with OPN (100 ng/ml) or SHH (100 nM))
CC1=C2C[C@H]3[C@@H](CC=C4C[C@@H](O)CC[C@@]43C)[C@@H]2CC[C@]12O[C@@H]1C[C@H](C)CN[C@H]1[C@H]2C [cyclopamine]	decreases the levels of OPN mRNA	decreases the levels of OPN mRNA	decreases the levels of OPN mRNA in a dose-dependent manner	decreased	significant reduction	significantly (*p<0.0001) compromises their ability to differentiate	significantly (*p<0.0001) compromises their ability to resorb matrix			
SHH: recombinant Sonic Hedgehog ligand (R & D Systems)								able to rescue the inhibitory effects of cyclopamine	potentiates differentiation; also recorded: stimulate osteoclast differentiation; also recorded: significantly (* indicates p<0.005) increases	significantly (* indicates p<0.001) increases the resorption activity
